Literature values, collected in paper PMC9653173, “Trotabresib (CC-90010) in combination with adjuvant temozolomide or concomitant temozolomide plus radiotherapy in patients with newly diagnosed glioblastoma” (Neuro-Oncology Advances, 2022).

Assays:
[1] = test system: MYC; settings: in vitro; cited from earlier work
[2] = test system: glioblastoma; parameters: method as in earlier work; settings: study discontinued; cited from earlier work
[3] = test system: rhabdomyosarcoma cells; parameters: method as in PMID 32200036; settings: cited from earlier work

| SMILES | MYC expression [1] | Clinical activity (primary endpoint 6-month PFS) [2] | Antitumor activity as a single agent [3] | Effect on ionizing radiation [3] |
| --- | --- | --- | --- | --- |
| Cc1sc2c(c1C)C(c1ccc(Cl)cc1)=N[C@@H](CC(=O)OC(C)(C)C)c1nnc(C)n1-2 [JQ1, reference compound] | downregulated in vitro |  |  |  |
| Cc1sc2c(c1C)C(c1ccc(Cl)cc1)=N[C@@H](CC(=O)Nc1ccc(O)cc1)c1nnc(C)n1-2 [OTX015] |  | lack of clinical activity | demonstrated antitumor activity as a single agent | potentiated the effects of ionizing radiation |
